Experimental data: the kinase profiling compilation of Christmann-Franck et al. (2016)
Where “and” joins values, the source holds several entries; their conditions need not be identical. Equal values may be shown once.

Tests used:
Assay in all cases: radiometric filter-binding kinase assay, Kinase HotSpot
Settings in all cases: compound 0.5 µM; ATP 10 µM
EPHA1 (human) = EPHA1 (human) (UniProt P21709)
AKT1 (human) = AKT1 (human) (UniProt P31749)
PLK1 (human) = PLK1 (human) (UniProt P53350)
NEK6 (human) = NEK6 (human) (UniProt Q9HC98)
CDK5 CDK5R1 p25 (human) = CDK5 CDK5R1 p25 (human) (UniProt Q00535+Q15078)
SGK2 (human) = SGK2 (human) (UniProt Q9HBY8)
EPHB3 (human) = EPHB3 (human) (UniProt P54753)
PTK2B (human) = PTK2B (human) (UniProt Q14289)
ACVRL1 (human) = ACVRL1 (human) (UniProt P37023)
RAF1 (human) = RAF1 (human) (UniProt P04049)
CAMKK1 (human) = CAMKK1 (human) (UniProt Q8N5S9)
HIPK1 (human) = HIPK1 (human) (UniProt Q86Z02)
MAP2K1 (human) = MAP2K1 (human) (UniProt Q02750)
PRKACA (human) = PRKACA (human) (UniProt P17612)
MAPK9 (human) = MAPK9 (human) (UniProt P45984)
MAP3K11 (human) = MAP3K11 (human) (UniProt Q16584)
CDK1 CCNB1 (human) = CDK1 CCNB1 (human) (UniProt P06493+P14635)
MAP2K2 (human) = MAP2K2 (human) (UniProt P36507)
GRK4 (human) = GRK4 (human) (UniProt P32298)
BLK (human) = BLK (human) (UniProt P51451)
MINK1 (human) = MINK1 (human) (UniProt Q8N4C8)
EPHB4 (human) = EPHB4 (human) (UniProt P54760)
ITK (human) = ITK (human) (UniProt Q08881)
DSTYK (human) = DSTYK (human) (UniProt Q6XUX3)
MAPK1 (human) = MAPK1 (human) (UniProt P28482)
CSF1R (human) = CSF1R (human) (UniProt P07333)
MARK4 (human) = MARK4 (human) (UniProt Q96L34)
SIK2 (human) = SIK2 (human) (UniProt Q9H0K1)
FGFR4 (human) = FGFR4 (human) (UniProt P22455)
LYN (human) = LYN (human) (UniProt P07948)
MAP3K2 (human) = MAP3K2 (human) (UniProt Q9Y2U5)
TAOK1 (human) = TAOK1 (human) (UniProt Q7L7X3)
CAMKK2 (human) = CAMKK2 (human) (UniProt Q96RR4)
PHKG1 (human) = PHKG1 (human) (UniProt Q16816)
PIM3 (human) = PIM3 (human) (UniProt Q86V86)
ALK (human) = ALK (human) (UniProt Q9UM73)
BRSK1 (human) = BRSK1 (human) (UniProt Q8TDC3)
MAP3K14 (human) = MAP3K14 (human) (UniProt Q99558)
OXSR1 (human) = OXSR1 (human) (UniProt O95747)
DCLK2 (human) = DCLK2 (human) (UniProt Q8N568)
PIM1 (human) = PIM1 (human) (UniProt P11309)
EPHA7 (human) = EPHA7 (human) (UniProt Q15375)

Sequence of HIPK1 (human) (Q86Z02 whole entry, looked up): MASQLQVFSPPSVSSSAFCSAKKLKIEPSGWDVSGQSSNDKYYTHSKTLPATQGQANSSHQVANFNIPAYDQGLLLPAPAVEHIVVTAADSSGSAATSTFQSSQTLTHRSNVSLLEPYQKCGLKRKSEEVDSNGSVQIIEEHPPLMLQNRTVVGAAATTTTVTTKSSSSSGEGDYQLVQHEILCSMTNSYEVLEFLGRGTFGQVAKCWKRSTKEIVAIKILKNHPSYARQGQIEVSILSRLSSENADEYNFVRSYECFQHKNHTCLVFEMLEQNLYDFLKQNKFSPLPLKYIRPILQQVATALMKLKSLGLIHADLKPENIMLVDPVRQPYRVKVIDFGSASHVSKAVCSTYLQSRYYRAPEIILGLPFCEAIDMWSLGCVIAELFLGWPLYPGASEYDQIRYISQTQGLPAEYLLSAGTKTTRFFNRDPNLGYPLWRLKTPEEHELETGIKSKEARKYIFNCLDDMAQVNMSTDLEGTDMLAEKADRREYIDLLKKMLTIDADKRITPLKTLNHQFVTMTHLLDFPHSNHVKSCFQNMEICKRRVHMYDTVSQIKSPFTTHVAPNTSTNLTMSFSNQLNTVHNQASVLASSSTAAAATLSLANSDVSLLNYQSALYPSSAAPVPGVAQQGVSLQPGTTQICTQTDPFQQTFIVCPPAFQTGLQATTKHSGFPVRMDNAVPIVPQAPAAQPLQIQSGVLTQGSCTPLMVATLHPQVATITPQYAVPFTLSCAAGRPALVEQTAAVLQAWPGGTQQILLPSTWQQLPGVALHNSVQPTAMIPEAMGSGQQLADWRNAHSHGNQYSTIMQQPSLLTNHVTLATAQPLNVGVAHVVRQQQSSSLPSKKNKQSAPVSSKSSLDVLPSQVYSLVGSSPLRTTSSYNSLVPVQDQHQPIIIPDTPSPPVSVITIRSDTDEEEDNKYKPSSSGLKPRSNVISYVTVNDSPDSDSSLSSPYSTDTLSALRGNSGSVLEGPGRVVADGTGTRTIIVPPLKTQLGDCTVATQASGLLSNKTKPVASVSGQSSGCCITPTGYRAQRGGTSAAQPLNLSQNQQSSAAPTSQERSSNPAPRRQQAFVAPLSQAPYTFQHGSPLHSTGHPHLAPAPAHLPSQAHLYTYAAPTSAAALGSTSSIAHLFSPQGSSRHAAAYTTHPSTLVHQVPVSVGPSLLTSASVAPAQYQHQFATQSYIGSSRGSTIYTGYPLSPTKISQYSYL
Sequence of PLK1 (human) (P53350 whole entry, looked up): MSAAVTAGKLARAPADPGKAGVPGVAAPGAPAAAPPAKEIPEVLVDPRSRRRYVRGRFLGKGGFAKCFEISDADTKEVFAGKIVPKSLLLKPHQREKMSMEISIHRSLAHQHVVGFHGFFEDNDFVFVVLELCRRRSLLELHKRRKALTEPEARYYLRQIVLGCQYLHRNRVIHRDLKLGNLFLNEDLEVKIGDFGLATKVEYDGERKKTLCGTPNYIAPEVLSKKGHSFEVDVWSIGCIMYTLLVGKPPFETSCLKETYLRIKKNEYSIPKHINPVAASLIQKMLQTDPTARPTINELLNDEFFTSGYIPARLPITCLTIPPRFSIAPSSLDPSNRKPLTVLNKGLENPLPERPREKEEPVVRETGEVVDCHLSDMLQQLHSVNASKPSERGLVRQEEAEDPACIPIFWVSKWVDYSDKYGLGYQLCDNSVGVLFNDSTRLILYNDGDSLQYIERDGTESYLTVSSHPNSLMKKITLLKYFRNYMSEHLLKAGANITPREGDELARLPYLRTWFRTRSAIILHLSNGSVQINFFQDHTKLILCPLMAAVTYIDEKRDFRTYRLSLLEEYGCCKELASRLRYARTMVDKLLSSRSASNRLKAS
Sequence of CAMKK1 (human) (Q8N5S9 whole entry, looked up): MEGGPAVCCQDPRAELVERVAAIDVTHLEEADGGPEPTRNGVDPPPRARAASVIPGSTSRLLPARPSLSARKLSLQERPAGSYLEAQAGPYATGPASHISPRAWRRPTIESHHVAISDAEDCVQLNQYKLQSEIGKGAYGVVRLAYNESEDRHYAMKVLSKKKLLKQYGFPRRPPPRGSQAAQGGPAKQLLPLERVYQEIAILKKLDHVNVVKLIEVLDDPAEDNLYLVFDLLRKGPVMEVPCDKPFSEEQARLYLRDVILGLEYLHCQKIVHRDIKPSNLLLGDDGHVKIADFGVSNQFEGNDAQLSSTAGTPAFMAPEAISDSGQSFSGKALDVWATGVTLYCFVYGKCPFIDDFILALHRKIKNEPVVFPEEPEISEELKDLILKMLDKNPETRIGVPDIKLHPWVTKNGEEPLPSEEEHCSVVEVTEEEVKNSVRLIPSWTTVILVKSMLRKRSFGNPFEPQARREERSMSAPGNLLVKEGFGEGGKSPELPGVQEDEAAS
Sequence of PTK2B (human) (Q14289 whole entry, looked up): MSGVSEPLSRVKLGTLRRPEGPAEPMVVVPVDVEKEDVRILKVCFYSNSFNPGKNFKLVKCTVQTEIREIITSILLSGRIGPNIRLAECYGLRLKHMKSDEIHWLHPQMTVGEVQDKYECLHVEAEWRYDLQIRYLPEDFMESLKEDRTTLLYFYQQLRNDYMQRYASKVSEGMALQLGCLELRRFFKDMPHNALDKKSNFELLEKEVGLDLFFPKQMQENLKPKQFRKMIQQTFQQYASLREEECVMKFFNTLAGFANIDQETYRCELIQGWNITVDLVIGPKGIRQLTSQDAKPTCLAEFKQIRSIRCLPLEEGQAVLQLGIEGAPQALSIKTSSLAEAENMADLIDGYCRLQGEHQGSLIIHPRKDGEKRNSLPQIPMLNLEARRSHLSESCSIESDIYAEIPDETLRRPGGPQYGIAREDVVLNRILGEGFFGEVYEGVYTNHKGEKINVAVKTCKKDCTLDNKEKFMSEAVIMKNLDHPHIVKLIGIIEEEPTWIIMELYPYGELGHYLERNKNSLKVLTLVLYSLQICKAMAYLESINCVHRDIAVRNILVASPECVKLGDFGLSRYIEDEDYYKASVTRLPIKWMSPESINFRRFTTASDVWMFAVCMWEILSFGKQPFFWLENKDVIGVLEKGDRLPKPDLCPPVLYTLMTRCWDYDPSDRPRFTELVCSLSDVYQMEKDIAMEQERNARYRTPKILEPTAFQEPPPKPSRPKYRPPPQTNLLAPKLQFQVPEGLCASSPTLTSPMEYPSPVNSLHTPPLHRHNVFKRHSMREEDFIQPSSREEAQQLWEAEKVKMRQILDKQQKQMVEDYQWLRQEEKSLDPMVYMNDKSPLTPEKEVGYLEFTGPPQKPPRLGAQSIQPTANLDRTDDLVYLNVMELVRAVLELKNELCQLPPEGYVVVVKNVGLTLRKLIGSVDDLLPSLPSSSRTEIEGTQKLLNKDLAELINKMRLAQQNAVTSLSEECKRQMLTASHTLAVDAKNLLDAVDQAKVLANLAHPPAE
Sequence of SIK2 (human) (Q9H0K1 whole entry, looked up): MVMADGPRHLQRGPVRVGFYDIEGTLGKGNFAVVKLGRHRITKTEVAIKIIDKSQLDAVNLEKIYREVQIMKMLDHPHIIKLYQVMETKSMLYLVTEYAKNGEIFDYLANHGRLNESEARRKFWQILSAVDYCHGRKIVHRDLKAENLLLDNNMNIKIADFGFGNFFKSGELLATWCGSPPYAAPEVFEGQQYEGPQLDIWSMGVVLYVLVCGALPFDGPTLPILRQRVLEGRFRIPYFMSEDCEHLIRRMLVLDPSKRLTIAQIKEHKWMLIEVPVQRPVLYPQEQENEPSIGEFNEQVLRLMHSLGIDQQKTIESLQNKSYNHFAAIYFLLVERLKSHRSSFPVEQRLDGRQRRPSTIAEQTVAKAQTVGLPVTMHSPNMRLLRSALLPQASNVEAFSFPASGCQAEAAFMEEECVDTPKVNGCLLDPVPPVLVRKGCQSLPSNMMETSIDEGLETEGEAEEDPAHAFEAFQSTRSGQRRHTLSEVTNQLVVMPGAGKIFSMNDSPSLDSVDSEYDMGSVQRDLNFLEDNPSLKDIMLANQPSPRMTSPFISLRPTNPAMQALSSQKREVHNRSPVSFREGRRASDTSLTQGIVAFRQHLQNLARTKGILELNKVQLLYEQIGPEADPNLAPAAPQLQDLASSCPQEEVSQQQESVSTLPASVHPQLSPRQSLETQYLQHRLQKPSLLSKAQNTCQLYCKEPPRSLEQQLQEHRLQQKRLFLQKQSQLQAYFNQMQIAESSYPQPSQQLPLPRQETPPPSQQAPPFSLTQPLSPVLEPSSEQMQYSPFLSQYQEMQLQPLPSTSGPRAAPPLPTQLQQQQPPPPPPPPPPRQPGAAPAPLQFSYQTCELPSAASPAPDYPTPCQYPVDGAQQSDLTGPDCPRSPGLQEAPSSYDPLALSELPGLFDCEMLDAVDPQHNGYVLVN
Sequence of MARK4 (human) (Q96L34 whole entry, looked up): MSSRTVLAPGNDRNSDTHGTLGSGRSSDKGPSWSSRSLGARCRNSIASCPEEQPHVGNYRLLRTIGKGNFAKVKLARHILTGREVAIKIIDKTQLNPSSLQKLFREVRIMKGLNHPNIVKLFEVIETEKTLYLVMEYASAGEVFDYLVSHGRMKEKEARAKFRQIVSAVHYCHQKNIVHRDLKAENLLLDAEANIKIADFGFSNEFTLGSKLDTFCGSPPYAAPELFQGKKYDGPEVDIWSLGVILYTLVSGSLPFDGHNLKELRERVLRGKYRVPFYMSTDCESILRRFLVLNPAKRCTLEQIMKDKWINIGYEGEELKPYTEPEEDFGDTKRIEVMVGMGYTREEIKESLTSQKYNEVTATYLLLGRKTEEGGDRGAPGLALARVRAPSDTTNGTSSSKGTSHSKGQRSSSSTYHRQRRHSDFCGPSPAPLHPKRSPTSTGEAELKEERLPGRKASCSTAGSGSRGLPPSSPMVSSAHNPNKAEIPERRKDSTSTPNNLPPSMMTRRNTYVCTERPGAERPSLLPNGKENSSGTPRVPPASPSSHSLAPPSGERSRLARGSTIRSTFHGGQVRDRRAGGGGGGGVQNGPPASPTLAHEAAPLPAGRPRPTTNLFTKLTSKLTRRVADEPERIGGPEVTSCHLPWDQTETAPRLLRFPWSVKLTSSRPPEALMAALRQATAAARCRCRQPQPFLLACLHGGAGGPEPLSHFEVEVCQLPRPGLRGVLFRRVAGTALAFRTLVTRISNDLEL

N#Cc1c(NC(=O)c2cccc3ccccc23)sc2c1CCCC2
residual activity (EPHA1 (human)): 103%
residual activity (AKT1 (human)): 101%
residual activity (PLK1 (human)): 96.4%
residual activity (NEK6 (human)): 101%
residual activity (CDK5 CDK5R1 p25 (human)): 100%
residual activity (SGK2 (human)): 101%
residual activity (EPHB3 (human)): 95.9%
residual activity (PTK2B (human)): 108%
residual activity (ACVRL1 (human)): 107%
residual activity (RAF1 (human)): 92.9%
residual activity (CAMKK1 (human)): 109%
residual activity (HIPK1 (human)): 107%
residual activity (MAP2K1 (human)): 98.4%
residual activity (PRKACA (human)): 102%
residual activity (MAPK9 (human)): 33.9%
residual activity (MAP3K11 (human)): 103%
residual activity (CDK1 CCNB1 (human)): 111%
residual activity (MAP2K2 (human)): 106%
residual activity (GRK4 (human)): 110%
residual activity (BLK (human)): 105%
residual activity (MINK1 (human)): 95.2%
residual activity (EPHB4 (human)): 99.5%
residual activity (ITK (human)): 101%
residual activity (DSTYK (human)): 100%
residual activity (MAPK1 (human)): 87.5%
residual activity (CSF1R (human)): 97.2%
residual activity (MARK4 (human)): 101%
residual activity (SIK2 (human)): 101%
residual activity (FGFR4 (human)): 109%
residual activity (LYN (human)): 104% and 87%
residual activity (MAP3K2 (human)): 84%
residual activity (TAOK1 (human)): 106%
residual activity (CAMKK2 (human)): 80.4%
residual activity (PHKG1 (human)): 93.8%
residual activity (PIM3 (human)): 95.3%
residual activity (ALK (human)): 96.4%
residual activity (BRSK1 (human)): 97%
residual activity (MAP3K14 (human)): 111%
residual activity (OXSR1 (human)): 103%
residual activity (DCLK2 (human)): 96.5%
residual activity (PIM1 (human)): 105%

N#CCCc1ccc2c(c1)-c1[nH]c3ccc([N+](=O)[O-])cc3c1CC(=O)N2
residual activity (EPHA1 (human)): 91.7%
residual activity (AKT1 (human)): 111%
residual activity (PLK1 (human)): 101%
residual activity (NEK6 (human)): 101%
residual activity (CDK5 CDK5R1 p25 (human)): 5.79%
residual activity (SGK2 (human)): 114%
residual activity (EPHB3 (human)): 102%
residual activity (PTK2B (human)): 62.9%
residual activity (ACVRL1 (human)): 53.6%
residual activity (RAF1 (human)): 104%
residual activity (CAMKK1 (human)): 86.7%
residual activity (HIPK1 (human)): 97.9%
residual activity (MAP2K1 (human)): 97.1%
residual activity (PRKACA (human)): 87.6%
residual activity (MAPK9 (human)): 97.1%
residual activity (MAP3K11 (human)): 18.4%
residual activity (CDK1 CCNB1 (human)): 9.89%
residual activity (MAP2K2 (human)): 90.3%
residual activity (GRK4 (human)): 101%
residual activity (BLK (human)): 78.8%
residual activity (MINK1 (human)): 29.9%
residual activity (EPHB4 (human)): 82.2%
residual activity (ITK (human)): 99.9%
residual activity (DSTYK (human)): 67.1%
residual activity (MAPK1 (human)): 119%
residual activity (CSF1R (human)): 43.4%
residual activity (MARK4 (human)): 62.5%
residual activity (SIK2 (human)): 44.2%
residual activity (FGFR4 (human)): 89.1%
residual activity (MAP3K2 (human)): 61.5%
residual activity (TAOK1 (human)): 73.1%
residual activity (CAMKK2 (human)): 86.8%
residual activity (PHKG1 (human)): 7.72%
residual activity (PIM3 (human)): 70.9%
residual activity (ALK (human)): 78.8%
residual activity (BRSK1 (human)): 46.8%
residual activity (MAP3K14 (human)): 161%
residual activity (OXSR1 (human)): 94.6%
residual activity (EPHA7 (human)): 95.3%
residual activity (DCLK2 (human)): 104%
residual activity (PIM1 (human)): 93.6%
